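In this assay, cells in 96-well plates receive the compound at five concentrations for 48 hours. Endpoints are linearly interpolated between the surrounding concentrations. GI50 = concentration required for 50% inhibition of growth. TGI: concentration producing complete growth inhibition.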
What was measured:
Assay in all cases: NCI anticancer screen, dose series, 48 h
[1] = system: 786-0 renal
[2] = system: A498 renal
[3] = system: A549 NSCLC
[4] = system: ACHN renal
[5] = system: BT-549 breast
[6] = system: CAKI-1 renal
[7] = system: CCRF-CEM leukemia
[8] = system: COLO 205 colon
[9] = system: DU-145 prostate
[10] = system: EKVX NSCLC
[11] = system: HCC-2998 colon
[12] = system: HCT-116 colon
[13] = system: HCT-15 colon
[14] = system: HL-60(TB) leukemia
[15] = system: HOP-62 NSCLC
[16] = system: HOP-92 NSCLC
[17] = system: HS 578T breast
[18] = system: HT29 colon
[19] = system: IGROV1 ovarian
[20] = system: K-562 leukemia
[21] = system: KM12 colon
[22] = system: LOX IMVI melanoma
[23] = system: M14 melanoma
[24] = system: MALME-3M melanoma
[25] = system: MCF7 breast
[26] = system: MDA-MB-231 breast
[27] = system: MDA-MB-435
[28] = system: MOLT-4 leukemia
[29] = system: NCI-H226 lung
[30] = system: NCI-H23 lung
[31] = system: NCI-H460 lung
[32] = system: NCI-H522 lung
[33] = system: NCI/ADR-RES ovarian
[34] = system: OVCAR-3 ovarian
[35] = system: OVCAR-4 ovarian
[36] = system: OVCAR-5 ovarian
[37] = system: OVCAR-8 ovarian
[38] = system: PC-3 prostate
[39] = system: RPMI-8226 leukemia
[40] = system: RXF 393 renal
[41] = system: SF-268 CNS
[42] = system: SF-295 CNS
[43] = system: SF-539 CNS
[44] = system: SK-MEL-2 melanoma
[45] = system: SK-MEL-28 melanoma
[46] = system: SK-MEL-5 melanoma
[47] = system: SK-OV-3 ovarian
[48] = system: SN12C renal
[49] = system: SNB-19 CNS
[50] = system: SNB-75 CNS
[51] = system: SR leukemia
[52] = system: SW-620 colon
[53] = system: T-47D breast
[54] = system: TK-10 renal
[55] = system: U251 CNS
[56] = system: UACC-257 melanoma
[57] = system: UACC-62 melanoma
[58] = system: UO-31 renal

COc1cc(OC)cc(C(=O)Nc2cccc(C#Cc3cccc4[nH]nc(N)c34)c2)c1
GI50 [1]: 2240 nM
TGI [1]: 11300 nM
GI50 [2]: 4500 nM
TGI [2]: 11100 nM
GI50 [3]: 1430 nM
TGI [3]: 18300 nM
GI50 [4]: 2640 nM
TGI [4]: 14700 nM
GI50 [5]: 1320 nM
TGI [5]: 6320 nM
GI50 [6]: 1640 nM
TGI [6]: 7180 nM
GI50 [7]: 808 nM
TGI [7]: > 56000 nM
GI50 [8]: 1160 nM
TGI [8]: 3630 nM
GI50 [9]: 2930 nM
TGI [9]: > 39000 nM
GI50 [10]: 2920 nM
TGI [10]: > 38200 nM
GI50 [11]: 1980 nM
TGI [11]: 4920 nM
GI50 [12]: 548 nM
TGI [12]: 10700 nM
GI50 [13]: 492 nM
TGI [13]: 12500 nM
GI50 [14]: 441 nM
TGI [14]: 2510 nM
GI50 [15]: 1710 nM
TGI [15]: 22500 nM
GI50 [16]: 2300 nM
TGI [16]: 11700 nM
GI50 [17]: 1250 nM
TGI [17]: 5430 nM
GI50 [18]: 641 nM
TGI [18]: 5370 nM
GI50 [19]: 1130 nM
TGI [19]: 11100 nM
GI50 [20]: 331 nM
TGI [20]: > 100000 nM
GI50 [21]: 957 nM
TGI [21]: 10400 nM
GI50 [22]: 759 nM
TGI [22]: 7180 nM
GI50 [23]: 535 nM
TGI [23]: 4550 nM
GI50 [24]: 782 nM
TGI [24]: 13100 nM
GI50 [25]: 469 nM
TGI [25]: 12300 nM
GI50 [26]: 1280 nM
TGI [26]: 5140 nM
GI50 [27]: 201 nM
TGI [27]: 490 nM
GI50 [28]: 931 nM
TGI [28]: 17800 nM
GI50 [29]: 1930 nM
TGI [29]: 9030 nM
GI50 [30]: 2140 nM
TGI [30]: 11700 nM
GI50 [31]: 586 nM
TGI [31]: 10800 nM
GI50 [32]: 485 nM
TGI [32]: 2700 nM
GI50 [33]: 1660 nM
TGI [33]: 8540 nM
GI50 [34]: 943 nM
TGI [34]: 11800 nM
GI50 [35]: 3510 nM
TGI [35]: 23600 nM
GI50 [36]: 2970 nM
TGI [36]: 45500 nM
GI50 [37]: 2360 nM
TGI [37]: 13700 nM
GI50 [38]: 2050 nM
TGI [38]: > 41200 nM
GI50 [39]: 1770 nM
TGI [39]: 17800 nM
GI50 [40]: 584 nM
TGI [40]: 3030 nM
GI50 [41]: 2060 nM
TGI [41]: 11000 nM
GI50 [42]: 1130 nM
TGI [42]: 5170 nM
GI50 [43]: 621 nM
TGI [43]: 2190 nM
GI50 [44]: 428 nM
TGI [44]: 1960 nM
GI50 [45]: 1760 nM
TGI [45]: 15700 nM
GI50 [46]: 1010 nM
TGI [46]: 3290 nM
GI50 [47]: 3680 nM
TGI [47]: 22600 nM
GI50 [48]: 2700 nM
TGI [48]: 13900 nM
GI50 [49]: 2460 nM
TGI [49]: 30900 nM
GI50 [50]: 306 nM
TGI [50]: 2710 nM
GI50 [51]: 133 nM
TGI [51]: 5480 nM
GI50 [52]: 689 nM
TGI [52]: > 35000 nM
GI50 [53]: 1210 nM
TGI [53]: 13800 nM
GI50 [54]: 4290 nM
TGI [54]: 12400 nM
GI50 [55]: 821 nM
TGI [55]: 15000 nM
GI50 [56]: 2040 nM
TGI [56]: 11800 nM
GI50 [57]: 478 nM
TGI [57]: 6490 nM
GI50 [58]: 2990 nM
TGI [58]: 12100 nM

Reference: PubChem BioAssay (NCI)
